Measured values from US20240299560A1, “DEOXYCHOLIC ACID-PEPTIDE CONJUGATE HAVING ANTI-OBESITY ACTIVITY AND USE THEREOF” (CAREGEN CO, LTD., priority 2020, published 2024).
Where a SMILES comes first, the peptide text is derived from it. [ ]: non-standard residue; d: D form. The star is where a group is joined. ξ: configuration not given here. Deoxycholoyl = C[C@H](CCC(=O)*)[C@H]1CC[C@H]2[C@@H]3CC[C@@H]4C[C@H](O)CC[C@]4(C)[C@H]3C[C@H](O)[C@]12C; ξF = NC(Cc1ccccc1)C(=O)O; ξL = CC(C)CC(N)C(=O)O; ξK = NCCCCC(N)C(=O)O; ξNva = CCCC(N)C(=O)O

Columns and labels:
3T3-L1 cells = experiment: Oil red O staining of fat accumulation in differentiated adipocytes; assay type: cell-based; conditions: 1 μM, 3T3-L1 adipocytes; for lipid accumulation amount: oil red O absorbance 510 nm
Protocol: 3T3-L1 cells as preadipocytes were purchased from the American Type Culture Collection (ATCC) and used in an experiment. 3T3-L1 was a cell line widely used to study the metabolic process of adipocytes, and as the differentiation of the cells was activated, fat accumulation in adipocytes was activated to induce obesity.
(§1) The preadipocytes 3T3-L1 were cultured in a DMEM containing 2% fetal bovine serum (FBS) under conditions of 37° C. and 5% CO2. The preadipocytes 3T3-L1 were dispensed in a 12-well plate at a density of 1×10^5 cells/well, and then further maintained for 2 days at a 100% confluency point. The preadipocytes were cultured for 2 days in a DMEM medium (hereinafter referred to as a ‘differentiation medium’) containing a differentiation ingredient (including 10 μg/ml insulin, 0.1 μM dexamethasone and 0.5 mM IBMX) and 10% FBS to induce the differentiation into adipocytes. After 48 hours of culture, the preadipocytes were cultured for 2 days in 10% FBS DMEM (hereinafter referred to as a ‘culture medium’) containing 1 μg/ml insulin. Thereafter, the culture medium was replaced with a 10% FBS DMEM culture medium every 2 days. During the induction of adipocytes differentiation, depending on a purpose of the experiment, a deoxycholic acid-peptide conjugate was treated or not in each culture medium at a concentration of 1 μM or 10 μM, and the differentiation degree of adipocytes was observed on day 7, when the differentiation was completed.
Specifically, the degree of differentiation of adipocytes induced in Preparation Example 1 was first confirmed under a microscope through oil red O staining, and for the staining degree of adipocytes, the degree of fat accumulated in the cells was calculated by measuring absorbance with a spectrophotometer at a wavelength of 510 nm. A group treated with a β3 adrenergic receptor agonist CL316243 or TNF-α was used as a positive control group.
In order to compare the fat accumulation inhibitory effects in the case of treating the deoxycholic acid-peptide conjugate and the case of treating the deoxycholic acid or the peptide of SEQ ID NO: 1 alone, the degree of differentiation of adipocytes and the degree of lipid accumulation were measured in the same manner as in Experimental Example 1-1. A group treated with TNF-α was used as a positive control group.

white adipose tissue = experiment: Glycerol release (lipolysis) from cultured adipose tissue; assay type: cell-based, mice; conditions: for glycerol release amount: 1 μM, adipose tissue
Protocol: Neutral fat stored in adipose tissue was decomposed into fatty acids and glycerol for energy production or cell signaling. Therefore, the lipolysis effect of neutral fat accumulated in the adipose tissue was confirmed by measuring the release amount of free glycerol.
Specifically, in female mice fed with a high-fat diet (Rodent Diet with 60% Kcal Fat, Research Diets, USA), a fat pad, which was white adipose tissue, was isolated, and each 400 mg of adipose tissue per well was placed in a 12-well plate, and then cultured for 48 hours in a culture medium (DMEM media serum free) to be stabilized. During the culture, the peptide conjugate was treated at concentrations of 1 μM, 10 μM, and 100 μM, and as a positive control group, 20 nM of TNFα was treated and cultured for 48 hours to obtain a supernatant, and the amount of glycerol was measured using a glycerol colorimetric assay kit (Cayman chemical, USA).
In order to compare the lipolysis effects in the case of treating the deoxycholic acid-peptide conjugate and the case of treating the deoxycholic acid or the peptide of SEQ ID NO: 1 alone, the amount of glycerol released from the adipose tissue was measured in the same manner as in Experimental Example 3-1. A group treated with TNF-α was used as a positive control group.

[1] = Solubility in water, visual observation; assay type: physicochemical; conditions: 1 mg in 90 μL distilled water
Protocol: Solubilities of the deoxycholic acid-peptide conjugate prepared in Example 2 and deoxycholic acid were visually observed and compared.
Specifically, 90 μL of distilled water was added to an E. tube containing 1 mg each of the deoxycholic acid-peptide conjugate and the deoxycholic acid, and dissolution was confirmed.

adipose tissue = experiment: H&E staining, size of adipocytes in adipose tissue; assay type: cell-based, BL/6 mice; conditions: vs control group
Protocol: (§2) Adipose tissue was collected from the abdomen of 9-week-old BL/6 mice, placed in a 100 mm×15 mm culture dish, and then cultured in a culture medium overnight. The adipose tissue was divided to have the same weight, transferred to a 24-well plate, and then used in the following Experimental Examples.
In order to confirm the lipolysis effect in adipose tissue by the deoxycholic acid-peptide conjugate, H&E staining was performed on the adipose tissue obtained in Preparation Example 2 to confirm the sizes of adipocytes.
Specifically, the adipose tissue was cut, attached to a paraffin slide, and dried at 50° C. The slide attached with the dried adipose tissue was placed in Xylene 1, 2, and 3 for 5 minutes each, and the paraffin was removed. Thereafter, the slide was put into 100% ethanol for 2 minutes, and then sequentially put into 90%, 80%, and 70% ethanol to be re-hydrated. The re-hydrated slide was stained in a hematoxylin solution, washed, and then stained with Eosin Y. Thereafter, the slide was sequentially put into 90%, 80%, and 70% ethanol, and then put into Xylene 3, 2, and 1, and then mounted with a xylene-based mounting medium to prevent air bubbles from entering the tissue, and then dried. Then, the dried slide was observed under an optical microscope.

[2] = system: adiponectin and leptin genes; experiment: RT-PCR of fat metabolism genes in adipocytes; assay type: cell-based; conditions: 1 and 10 μM, 1, 3, 6 hours
Protocol: as §1, with “completed. […]” for “completed.”

[3] = system: UCP1, PRDM and Cidea genes; experiment: RT-PCR of thermogenesis-related genes of brown adipocytes in adipose tissue; assay type: cell-based, BL/6 mice; conditions: 1 and 10 μM, 72 hours
Protocol: as §2
(§3) The adipocytes obtained in Preparation Example 1 or the adipose tissue obtained in Preparation Example 2 were treated with the deoxycholic acid-peptide conjugate of the present invention, cultured, and then recovered, and RNA was extracted with Trizol (Thermo Fisher Scientific, USA). From the extracted RNA, complementary DNA to RNA was obtained using TOPScript™ RT DryMIX (enzynomics, Korea) and then polymerase chain reaction (PCR) was performed using TOPsimple™ DryMIX-nTaq (enzynomics, Korea). Thereafter, PCR products were loaded on a 1.5% agarose gel to compare the mRNA expression levels of the growth factors.
(§4) Specifically, the adipose tissue obtained in Preparation Example 2 was treated with 1 μM and 10 μM of the deoxycholic acid-peptide conjugate and 1 μM of CL316,243 (Sigma, USA) as a positive control group and further cultured for 72 hours. After the cells were recovered and the polymerase chain reaction was performed by the method described in Experimental Example 4-1, the expression products were loaded on an agarose gel to confirm the mRNA expression levels of genes related to adipogenesis.

HSL and PLIN genes = experiment: RT-PCR of lipolysis genes in adipose tissue; assay type: cell-based, BL/6 mice; conditions: 1 and 10 μM, 72 hours
Protocol: as §2, §3
Specifically, the adipose tissue obtained in Preparation Example 2 was treated with 1 μM and 10 μM of the deoxycholic acid-peptide conjugate and 1 μM of CL316243 (Sigma, USA) as a positive control group and cultured for 72 hours. […]

[4] = system: ACCα, FAS and PPARγ genes; experiment: RT-PCR of adipogenesis genes in adipose tissue; assay type: cell-based, BL/6 mice; conditions: 1 and 10 μM, 72 hours
Protocol: as §2, §3, §4

AMPKa1, HSL, PGC1a genes = experiment: RT-PCR of lipolysis-related genes in adipocytes; assay type: cell-based; conditions: 1 and 10 μM; 24 hours; differentiated adipocytes
Protocol: as §1, §3
Specifically, the differentiated adipocytes obtained in Preparation Example 1 were treated with 1 μM and 10 μM of the deoxycholic acid-peptide conjugate, and then cultured for 24 hours. […]

[5] = system: IL-15 gene in C2C12 cells; experiment: RT-PCR of IL-15 gene in muscle cells; assay type: cell-based, mouse; conditions: 1 and 10 μM; 6 hours; C2C12 myotubes
Protocol: as §3
Specifically, C2C12 cells, which were mouse myoblasts, were inoculated into a 6-well plate at a density of 2×10^5 cells/well, and then cultured in a DMEM (10% FBS) medium for 3 days. When the cells had grown to about 70 to 80% of the plate, the medium was replaced with a differentiation medium (DMEM, 5% horse serum) and then cultured for 3 days. Thereafter, the medium was replaced with the differentiation medium (DMEM, 2% horse serum) and cultured for 4 days to induce differentiation from myoblasts to myotubes. Then, the medium was replaced with a serum-free medium and cultured for 2 hours, and treated with 1 μM and 10 μM of the deoxycholic acid-peptide conjugate for 6 hours and cultured in an environment of 37° C. and 5% CO2. […]

| Molecule | lipid accumulation amount (3T3-L1 cells) [%] | glycerol release amount (white adipose tissue) [%] | solubility in water (dissolution, visual) [1] | sizes of adipocytes (adipose tissue) | adiponectin mRNA expression [2] | leptin mRNA expression [2] | fat staining in adipocytes (oil red O) (3T3-L1 cells; day 7, positive control CL316243 or TNF-α) | Cidea mRNA expression [3] | PRDM mRNA expression [3] | UCP1 mRNA expression [3] | HSL mRNA expression (HSL and PLIN genes) | PLIN mRNA expression (HSL and PLIN genes) | amount of glycerol released (white adipose tissue; 1, 10, 100 μM, 48 hours, adipose tissue of high-fat diet mice, vs control group) | ACCα mRNA expression [4] | FAS mRNA expression [4] | PPARγ mRNA expression [4] | AMPKa1 mRNA expression (AMPKa1, HSL, PGC1a genes) | HSL mRNA expression (AMPKa1, HSL, PGC1a genes) | PGC1a mRNA expression (AMPKa1, HSL, PGC1a genes) | IL-15 mRNA expression [5] |
| --- | --- | --- | --- | --- | --- | --- | --- | --- | --- | --- | --- | --- | --- | --- | --- | --- | --- | --- | --- | --- |
| C[C@H](CCC(=O)O)[C@H]1CC[C@H]2[C@@H]3CC[C@@H]4C[C@H](O)CC[C@]4(C)[C@H]3C[C@H](O)[C@]12C [deoxycholic acid, 3,12-dihydroxycholan-24-oic acid] | 93 | 116 | hardly dissolved | – | – | – | – | – | – | – | – | – | – | – | – | – | – | – | – | – |
| CCCC(NC(=O)C(CC(C)C)NC(=O)C(Cc1ccccc1)NC(=O)C(CCCCN)NC(=O)CC[C@@H](C)[C@H]1CC[C@H]2[C@@H]3CC[C@@H]4C[C@H](O)CC[C@]4(C)[C@H]3C[C@H](O)[C@]12C)C(=O)NC(CCCCN)C(=O)O (stereo partly shown) [deoxycholic acid-peptide conjugate] (Deoxycholoyl-[ξK][ξF][ξL][ξNva][ξK]-OH) | 78 | 175 | completely dissolved | decreased | increased | increased | reduced at the same level as the positive control group | increased | increased | increased | increased in a concentration dependent manner | increased in a concentration dependent manner | increased in a concentration-dependent manner | decreased | decreased | decreased | increased | increased | increased | increased |
| Lys Phe Leu Ile Lys (KFLIK) [peptide of SEQ ID NO: 1] | 89 | 106 | – | – | – | – | – | – | – | – | – | – | – | – | – | – | – | – | – | – |
